Assays:
HRas^G12V [1] = target: T1, HRas^G12V (Homo sapiens (Human), UniProt P01112, G12V); test: 19F DLB (ligand-observed 19F NMR) score; assay type: binding; design: scale not given here
Protocol: (§1) All NMR experiments were collected using 3 mm NMR tubes on a 600 MHz Bruker Avance III spectrometer equipped with a QCI helium cryoprobe and a SampleJet sample changer. The buffer used for NMR experiments was 25 mM sodium phosphate pH 7.4, 150 mM NaCl, 5 mM MgCl2, 1 mM TCEP-d16, 10% D2O. Data were processed using Bruker TopSpin.
(§2) Since the fragment library was curated using phosphate buffer, 25 mM sodium phosphate pH 7.4, 150 mM NaCl, 5 mM MgCl2, 1 mM TCEP-d16, 10% D2O Fresh TCEP was used for experiments. Screening was performed using ^1H-decoupled 1D ^19F experiment Bruker experiment (zgfhigqn.2) with 64 scans and a relaxation delay of 5 seconds. 50 μM HRas^G12V and 240 μM of each fragment in pools (mixtures) were used.
Hit confirmation was performed using the same ^19F experiment as the screen. Ligand-observed 1D ^1H, protein-observed 1D ^1H, ^1H T2-CPMG as well as Saturation Transfer Difference (STD) experiments were also run on the same samples. Ligand-observed 1D ^1H was run using the standard Bruker sequence with excitation sculpting (zgesgp) with a relaxation delay of 10 seconds and 16 scans per spectrum. Protein-observed 1D ^1H was performed using the same sequence with a relaxation delay of 1 second and 256 scans in order to increase the signal-to-noise of the protein resonances, while keeping the experimental time relatively short. The ^1H T2-CPMG experiment employed a modified version of the Bruker 1D ^1H zgesgp experiment with the addition of a CPMG pulse train after the first 90° excitation pulse. Total duration for each spin echo was fixed at 1 ms (τ=500 μs), while the number of echoes in the pulse train was varied according to the total time (T). The number of scans for each spectrum was 4 and eight delay times were run on each sample, ranging from 1 ms to 800 ms. […]

HRas^G12V [2] = target: T1, HRas^G12V; test: 19F T2-CPMG NMR score; assay type: binding
Protocol: as §1, §2
Hit confirmation was performed using the same ^19F experiment as the screen. Ligand-observed 1D ^1H, protein-observed 1D ^1H, ^1H T2-CPMG as well as Saturation Transfer Difference (STD) experiments were also run on the same samples. Ligand-observed 1D ^1H was run using the standard Bruker sequence with excitation sculpting (zgesgp) with a relaxation delay of 10 seconds and 16 scans per spectrum. Protein-observed 1D ^1H was performed using the same sequence with a relaxation delay of 1 second and 256 scans in order to increase the signal-to-noise of the protein resonances, while keeping the experimental time relatively short. The ^1H T2-CPMG experiment employed a modified version of the Bruker 1D ^1H zgesgp experiment with the addition of a CPMG pulse train after the first 90° excitation pulse. Total duration for each spin echo was fixed at 1 ms (τ=500 μs), while the number of echoes in the pulse train was varied according to the total time (T). The number of scans for each spectrum was 4 and eight delay times were run on each sample, ranging from 1 ms to 800 ms.
Because of its power to probe the intrinsically weak interactions (Kd) between targets and low-molecular weight fragments, NMR fragment-based lead discovery (FBLD) is a very useful biophysical method in early stage drug discovery, especially for challenging target proteins; including those with shallow binding pockets. Since FBLD screens are performed using low-molecular weight compounds (fragments) with lower structural complexity, the same chemical space can be covered using a smaller number of drug-like fragments versus use of large libraries of higher-molecular weight lead-like compounds as in high throughput screening (HTS) campaigns. Therefore, FBLD has a much higher hit rate than HTS using only several hundred to several thousand compounds in comparison with approximately 1 million compounds for HTS. Also, the small size of the compounds screened in FBLD means a better chance to fully match the interactions with small or transient pockets within the target protein, where these less tractable pockets cannot be accessed with standard classical HTS methods. […] We expect this methodology to be more advantageous than classical HTS methods for expediting the time from hit to lead (H2L) and allows for rapid access to high quality leads with lower attrition rates in subsequent lead optimization (LO) campaigns toward pre-clinical candidate selection. FBLD screening by NMR involves a “consensus binding” approach where several distinct NMR experiments (DLB, STD, CPMG) are applied along with a free-state aggregation detection method (T2-CPMG) to rank the compounds for their affinity to the receptor (HRAS in this case) whilst simultaneously monitoring the solution behavior and critical quality attributes of each compound. The latter helps to eliminate artifact binders which are highly problematic. We performed a fluorine screen involving 461 compounds that were derived from a highly curated fragment library. Moreover, two-dimensional ^15N HSQC NMR was also used to validate ligand-binding sites on the target protein. […]

T1 sequence (P01112 1-166 G12V): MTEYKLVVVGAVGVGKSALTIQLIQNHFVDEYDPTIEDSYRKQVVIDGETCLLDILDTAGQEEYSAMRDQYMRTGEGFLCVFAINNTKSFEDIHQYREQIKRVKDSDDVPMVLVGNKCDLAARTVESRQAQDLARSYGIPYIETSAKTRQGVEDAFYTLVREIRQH

SMILES | 19F DLB Score (HRas^G12V [1]) | 19F T2-CPMG Score (HRas^G12V [2])
O=C1CCCN(C(=O)Cc2c[nH]c3cc(F)ccc23)C1 [Compound 10109] | 3.45 | 15.4
CC(C)COC1CCN(C(=O)Cc2c[nH]c3cc(F)ccc23)CC1 [Compound 10111, 2-(6-fluoro-1H-indol-3-yl)-1-(4-isobutoxypiperidin-1-yl) ethan-1-one] | 2.23 | 12.96
O=C(C1CC1)C1CN(C(=O)Cc2c[nH]c3cc(F)ccc23)C1 [Compound 10115, 1-(3-(cyclopropanecarbonyl)azetidin-1-yl)-2-(6-fluoro-1H-indol-3-yl)ethan-1-one] | 1.89 | 12.42
CC(C)C(=O)C1CN(C(=O)Cc2c[nH]c3cc(F)ccc23)C1 [Compound 10116] | 1.88 | 13.95
CN1CCC(NC(=O)Cc2c[nH]c3cc(F)ccc23)C(C(=O)O)C1 (stereo not drawn) [Compound 10117, 4-(2-(6-fluoro-1H-indol-3-yl)acetamido)-1-methylpiperidine-3-carboxylic acid] | 1.54 | 10.14
O=C(Cc1c[nH]c2cc(F)ccc12)N1CCCC(O)C1 (stereo not drawn) [Compound 10120] | 2.34 | 13.94
O=C(Cc1c[nH]c2cc(F)ccc12)N1C[C@H]2CC[C@@H](C1)O2 [Compound 10122] | 1.68 | 9.62
COC(C)C1CN(C(=O)Cc2c[nH]c3cc(F)ccc23)C1 (stereo not drawn) [Compound 10124, 2-(6-fluoro-1H-indol-3-yl)-1-(3-(1-methoxyethyl)azetidin-1-yl)ethan-1-one] | 1.82 | 12.49
O=C(O)[C@H]1CCCCN1C(=O)Cc1c[nH]c2cc(F)ccc12 [Compound 10125] | 1.56 | 10.15
CCOC(=O)[C@@H]1CCCCN1C(=O)Cc1c[nH]c2cc(F)ccc12 [Compound 10126] | 4.22 | 13.7
CCOC(=O)[C@H]1CCCCN1C(=O)Cc1c[nH]c2cc(F)ccc12 [Compound 10128] | 2.85 | 13.67
O=C(O)C1CCN(C(=O)Cc2c[nH]c3cc(F)ccc23)CC1 [Compound 10129] | 1.27 | 3.92
CCOC(=O)CC1CCN(C(=O)Cc2c[nH]c3cc(F)ccc23)CC1 [Compound 10130] | 2.09 | 12.1
CC(O)C1CN(C(=O)Cc2c[nH]c3cc(F)ccc23)C1 (stereo not drawn) [Compound 10131, 2-(6-fluoro-1H-indol-3-yl)-1-(3-(1-hydroxyethyl)azetidin-1-yl)ethan-1-one] | 2.17 | 20.77
CCOC(=O)C1CCN(C(=O)Cc2c[nH]c3cc(F)ccc23)CC1 [Compound 10132] | 2.01 | 13.29
COCC1(C)CN(C(=O)Cc2c[nH]c3cc(F)ccc23)C1 [Compound 10134, 2-(6-fluoro-1H-indol-3-yl)-1-(3-(methoxymethyl)-3-methylazetidin-1-yl)ethan-1-one] | 2.1 | 13.32
CC(=O)C1CN(C(=O)Cc2c[nH]c3cc(F)ccc23)C1 [Compound 10138] | 1.98 | 14.25

SMILES | 19F DLB Score (HRas^G12V [1]) | 19F T2-CPMG Score (HRas^G12V [2])
CC(=O)N[C@H]1CCCN(C(=O)Cc2c[nH]c3cc(F)ccc23)C1 [Compound 10139, (S)—N-(1-(2-(6-fluoro-1H-indol-3-yl)acetyl)piperidin-3-yl) acetamide] | 1.93 | 4.54
CC1CN(C(=O)Cc2n[nH]c3cc(F)ccc23)C1 [Compound 10144, 2-(6-fluoro-1H-indazol-3-yl)-1-(3-methylazetidin-1-yl)ethan-1-one] | 1.93 | 9.44
O=C1CN(C(=O)Cc2c[nH]c3cc(F)ccc23)CCN1 [Compound 10145] | 1.64 | 16.13
CN1CCN(C(=O)Cc2c[nH]c3cc(F)ccc23)CC1=O [Compound 10146] | 1.56 | 9.75
O=C(Cc1c[nH]c2cc(F)ccc12)N1CCO[C@@H](CO)C1 [Compound 10147, (R)-2-(6-fluoro-1H-indol-3-yl)-1-(2-(hydroxymethyl)morpholino) ethan-1-one] | 2.3 | 19.87
O=C(Cc1c[nH]c2cc(F)ccc12)N1CCO[C@H](CO)C1 [Compound 10148] | 1.87 | 12.46
COC[C@H]1CN(C(=O)Cc2c[nH]c3cc(F)ccc23)CCO1 [Compound 10154, (R)-2-(6-fluoro-1H-indol-3-yl)-1-(2-(methoxymethyl)morpholino)ethan-1-one] | 1.62 | 8.16
CCOC(=O)[C@@H]1CCCN(C(=O)Cc2c[nH]c3cc(F)ccc23)C1 [Compound 10161] | 2.07 | 7.87
COC(=O)[C@@H]1CN(C)CCN1C(=O)Cc1c[nH]c2cc(F)ccc12 [Compound 10167] | 3.62 | 5.07
CCC(C(=O)N1CC(C)C1)c1c[nH]c2cc(F)ccc12 (stereo not drawn) [Compound 11005] | 3.19 | 16.59
Fc1ccc2c(C3CCNCC3)c[nH]c2c1 [Compound 11012] | 2.58 | 13.63
CC(C)(C)OC(=O)N1CCC(C(=O)N2CCC(c3c[nH]c4cc(F)ccc34)CC2)C1 (stereo not drawn) [Compound 11017] | 1.86 | 16.89
O=C(c1ccc(F)cc1F)N1CCC(c2c[nH]c3cc(F)ccc23)C1 (stereo not drawn) [Compound 11018] | 2.51 | 9.96
O=C(C1CCC(O)CC1)N1CCC(c2c[nH]c3cc(F)ccc23)C1 (stereo not drawn) [Compound 11019] | 2.2 | 12.9
CC(=O)Nc1cccc(C(=O)N2CCC(c3c[nH]c4cc(F)ccc34)CC2)c1 [Compound 11020] | 2.23 | 15.24
O=C(c1ccccc1)N1CCC(c2c[nH]c3cc(F)ccc23)C1 (stereo not drawn) [Compound 11021] | 3.35 | 39.09

From patent US20240408064A1, “RAS INHIBITORS, COMPOSITIONS AND METHODS OF USE THEREOF” (GENETOLEAD INC., priority 2021, published 2024)
